Paper PMC2763920 (Electrophoresis, 2009)

Legend:
GST-Fyn-SH3-SH2 [1] = test: NECEEM, GST-Fyn-SH3-SH2:Fluor-Fyn peptide complex; assay type: binding; conditions: 2 μM GST-Fyn-SH3-SH2, 100 nM Fluor-Fyn peptide, pH 8.5
GST-Fyn-SH3-SH2 [2] = test: High-speed CE competition / binding, GST-Fyn-SH3-SH2 with Fluor-Fyn peptide
Fyn-SH3-SH2 = conditions: 100 V/cm for Ld of 30 cm; 100 and 200 V/cm for Ld of 40 cm; t1/2 not measured

Substance: fluorescein-EEEEPQpYEEIPIYL [Fluor-Fyn peptide]
- complexes observed (NECEEM) (GST-Fyn-SH3-SH2 [1]): two incompletely resolved peaks
- number of complexes detected (high-speed CE), GST-Fyn-SH2-SH3 (GST-Fyn-SH3-SH2 [2]; 500 nM protein, 200 nM Fluor-Fyn peptide): two distinct complexes were detected
- complex 1-to-complex 2 ratio with increasing peptide concentration (GST-Fyn-SH3-SH2 [2]; Fluor-Fyn peptide 50 nM to 700 nM, protein 500 nM): decreases with increasing peptide concentration
- protein concentration dependency of complex formation: low range (GST-Fyn-SH3-SH2 [2]; GST-Fyn-SH3-SH2 0.1 μM to 0.5 μM, Fluor-Fyn peptide 200 nM): complex 2 increases
- complex expected to dissociate over the course of separation (GST-Fyn-SH3-SH2 [2]; for t1/2 of 22 s and separation time of 3.8 s): 2%
- dissociation of the complex at low electric field (NECEEM) (Fyn-SH3-SH2): complete dissociation of the complex
